According to patent publication US6410537B1, “Compositions having neuroprotective and analgesic activity” (The United States of America as represented by the …, priority 1994, dated 2002):

Tests used:
neuronal cell cultures = experiment: Neuroprotection against glutamate toxicity in neuronal cell cultures, measured by LDH release; assay type: cell-based; conditions: for LDH release: mean ± s.e., 18 hours after glutamate exposure
Description: (§1) One particularly valuable enantiomer of the invention is the (+)-8 compound designated SNC80. […] To obtain better understanding of the benefits obtained by use of the compounds of the invention, beneficial effects of the compound were assessed in a model for evaluation of CNS excito-toxicity in an in vitro neuronal culture model. The neurotoxicity/neuroprotection was assessed 18 hours after exposure to the excitotoxin glutamate.
The neuroprotective effect of the SNC80 against glutamate toxicity in neuronal cell cultures was determined using a standard method of quantifying neuronal damage by measuring LDH release, since LDH is a […] enzyme released from damaged neurons into the culture media when neuronal cells are injured. One way in which neuronal cells may be damaged is by exposure to glutamate, a common agent used to induce neuronal damage. In the instant case, the damaging effect of gluamate on these cultures as shown to be overcome by exposure to an active agent of the invention.

neurons = experiment: Antagonism of glutamate neurotoxic calcium flux (intracellular calcium response type); assay type: cell-based
Description: as §1

[1] = Convulsive activity after intracerebral ventricular dosing; assay type: in vivo; conditions: rats; intracerebral ventricular dosages up to 800 μg
[2] = Glutamate (80 μM) + SNC80 20 μM
[3] = Glutamate (80 μM) + SNC80 40 μM

Structure (SMILES): C=CCN1C[C@H](C)N([C@H](c2ccc(C(=O)N(CC)CC)cc2)c2cccc(OC)c2)C[C@H]1C [SNC80]
- Neuroprotection (LDH measurements and morphological evaluation) (neuronal cell cultures; 18 hours after exposure to glutamate, compared to glutamate alone): concentration-dependent neuroprotection
- % neuroprotection (neuronal cell cultures; Glutamate (80 μM) + SNC80 5 μM): 17%
- LDH release (neuronal cell cultures; Glutamate (80 μM) + SNC80 5 μM): 98.6 ± 4.5 Units ML
- % neuroprotection (neuronal cell cultures; [2]): 43%
- LDH release (neuronal cell cultures; [2]): 91.0 ± 2.0 Units ML
- % neuroprotection (neuronal cell cultures; [3]): 63%
- LDH release (neuronal cell cultures; [3]): 84.7 ± 3.4 Units ML
- Response Type biphasic (number of neurons) (neurons; Glutamate + 50 μM, 10 neurons): 6
- Response Type sustained (neurotoxic) (number of neurons) (neurons; Glutamate + 50 μM, 10 neurons): 1
- Response Type transient (number of neurons) (neurons; Glutamate + 50 μM, 10 neurons): 3
- Response Type biphasic (number of neurons) (neurons; Glutamate + 100 μM, 21 neurons): 17
- Response Type sustained (neurotoxic) (number of neurons) (neurons; Glutamate + 100 μM, 21 neurons): 1
- Response Type transient (number of neurons) (neurons; Glutamate + 100 μM, 21 neurons): 3
- Intracellular Ca++ concentration as indicator of glutamate-induced neuronal injury (neurons; glutamate-treated neurons): beneficial shift in the intracellular Ca^++ concentration
- Convulsive activity [1]: failed to elicit convulsive activity
